The target of this test is T1, wildtype HIV-1 protease (Human immunodeficiency virus type 1 group M subtype B, UniProt P04585).
T1 construct: preincubated with the HIV-1 protease (wild type) enzyme in assay buffer; made in house; host or cells: Escherichia coli
The experiment in a line: Assay for Inhibition of Microbial Expressed HIV Protease (Pepcleav). The test is classed as biochemical. Here is the method:
Assay for Inhibition of Microbial Expressed HIV Protease (“Pepcleav”)
Studies of the inhibition of the wildtype HIV-1 protease (which was expressed in Escherichia coli) were carried out with a peptide substrate [Val-Ser-Gln-Asn-(βnaphthyl)Ala-Pro-Ile-Val (SEQ ID NO: 1)]. The inhibitor was first preincubated with the HIV-1 protease (wild type) enzyme in assay buffer (50 mM sodium acetate, pH 5.5, 100 mM NaCl, and 0.1% BSA) for 30 minutes at room temperature. Substrate was added to 400 micromolar in a total volume of 20 microliters containing 20 picomolar HIV-1 protease (final) and the reaction was incubated for 1 hour at 30° C. The reaction was quenched with the addition of formic acid and indinavir to 0.012% and 150 nM final concentrations, respectively. The product formation was determined after separation of product and substrate on a Zorbax Eclipse XDB-C18 column connected to an API 4000 mass spectrometer (Applied Biosystems) with multiple reaction monitoring (transitions were 644.5/428.9 and 615.4/422.2 (M1/M3) for product and indinavir respectively). The extent of inhibition of the reaction was determined from the peak area of the products. Analysis of the products, independently synthesized, provided quantitation standards and confirmation of the product composition.

Drawing on US9737545B2 (MERCK SHARP & DOHME CORP., priority 2013, dated 2017), this text covers IC50 for 24 molecules.

With `COC(=O)N[C@H](C(=O)Nc1ccccc1CC[C@@H]1CN[C@H](c2nc3ccc(Br)cc3[nH]2)CO1)C(c1ccccc1)c1ccccc1` [Example 11, methyl N-[(1S)-1-benzhydryl-2-[[2-[2-[(2R,5R)-5-(6-bromo-1H-benzimidazol-2-yl)morpholin-2-yl]ethyl]phenyl]amino]-2-oxo-ethyl]carbamate], the concentration for half-maximal inhibition (IC50) (commonly the point on the concentration scale where inhibition reaches its midpoint) worked out at 411 pM.

Consider `COC(=O)N[C@H](C(=O)Nc1ccccc1CC[C@@H]1CN[C@H](c2nc3cc(Cl)c(Cl)cc3[nH]2)CO1)C(c1ccccc1)c1ccccc1` [Example 12], for which half-maximal inhibition (IC50) required 706 pM. This IC50 lies about 1.7-fold higher than the previous one.

`COC(=O)N[C@H](C(=O)Nc1ccccc1CC[C@@H]1CN[C@H](c2nc3cccc(Cl)c3[nH]2)CO1)C(c1ccccc1)c1ccccc1` [Example 13, methyl N-[(1S)-1-benzhydryl-2-[[2-[2-[(2R,5R)-5-(7-chloro-1H-benzimidazol-2-yl)morpholin-2-yl]ethyl]phenyl]amino]-2-oxo-ethyl]carbamate] displayed a 50% inhibitory concentration (IC50) of 137 pM. This IC50 is about 5.2-fold lower than that of the molecule before. In turn, `COC(=O)N[C@H](C(=O)Nc1ccccc1CC[C@@H]1CN[C@H](c2nc3cccc(Br)c3[nH]2)CO1)C(c1ccccc1)c1ccccc1` [Example 14, methyl N-[(1S)-1-benzhydryl-2-[[2-[2-[(2R,5R)-5-(7-bromo-1H-benzimidazol-2-yl)morpholin-2-yl]ethyl]phenyl]amino]-2-oxo-ethyl]carbamate] returned a half-inhibitory concentration (IC50) of 592 pM. This IC50 is about 4.3-fold higher than that of the molecule before. To `COC(=O)N[C@H](C(=O)Nc1ccccc1CC[C@@H]1CN[C@H](c2nc3c(O)cccc3[nH]2)CO1)C(c1ccccc1)c1ccccc1` [Example 15, methyl N-[(1S)-1-benzhydryl-2-[[2-[2-[(2R,5R)-5-(4-hydroxy-1H-benzimidazol-2-yl)morpholin-2-yl]ethyl]phenyl]amino]-2-oxo-ethyl]carbamate] belongs 55.9 pM; to `COC(=O)N[C@H](C(=O)Nc1ccccc1CC[C@@H]1CN[C@H](c2nc3cc(F)c(F)cc3[nH]2)CO1)C(c1ccccc1)c1ccccc1` [Example 16, methyl N-[(1S)-1-benzhydryl-2-[[2-[2-[(2R,5R)-5-(5,6-difluoro-1H-benzimidazol-2-yl)morpholin-2-yl]ethyl]phenyl]amino]-2-oxo-ethyl]carbamate], 24.6 pM.

Molecule `COC(=O)N[C@H](C(=O)Nc1ccccc1CC[C@@H]1CN[C@H](c2nc3c(F)c(F)c(F)cc3[nH]2)CO1)C(c1ccccc1)c1ccccc1` [Example 17, methyl N-[(1S)-1-benzhydryl-2-oxo-2-[[2-[2-[(2R,5R)-5-(4,5,6-trifluoro-1H-benzimidazol-2-yl)morpholin-2-yl]ethyl]phenyl]amino]ethyl]carbamate] showed an IC50 of 74.7 pM. This IC50 lies about 3-fold higher than the previous one. In turn, `COC(=O)N[C@H](C(=O)Nc1ccccc1CC[C@@H]1CN[C@H](c2nc3ccc(F)cc3[nH]2)CO1)C(c1ccccc1)c1ccccc1` [Example 18, methyl N-[(1S)-1-benzhydryl-2-[[2-[2-[(2R,5R)-5-(6-fluoro-1H-benzimidazol-2-yl)morpholin-2-yl]ethyl]phenyl]amino]-2-oxo-ethyl]carbamate] returned a half-maximal inhibitory concentration (IC50) of 125 pM. In the case of `COC(=O)N[C@H](C(=O)Nc1ccccc1CC[C@@H]1CN[C@H](c2nc3c(Br)cc(C)cc3[nH]2)CO1)C(c1ccccc1)c1ccccc1` [Example 19, methyl N-[(1S)-1-benzhydryl-2-[[2-[2-[(2R,5R)-5-(4-bromo-6-methyl-1H-benzimidazol-2-yl)morpholin-2-yl]ethyl]phenyl]amino]-2-oxo-ethyl]carbamate] it was 573 pM; in that of `COC(=O)N[C@H](C(=O)Nc1ccccc1CC[C@@H]1CN[C@H](c2nc3cc(F)c(Br)cc3[nH]2)CO1)C(c1ccccc1)c1ccccc1` [Example 20, methyl N-[(1S)-1-benzhydryl-2-[[2-[2-[(2R,5R)-5-(6-bromo-5-fluoro-1H-benzimidazol-2-yl)morpholin-4-ium-2-yl]ethyl]phenyl]amino]-2-oxo-ethyl]carbamate], 525 pM. The molecule `COC(=O)N[C@H](C(=O)Nc1ccccc1CC[C@@H]1CN[C@H](c2nc3nccnc3[nH]2)CO1)C(c1ccccc1)c1ccccc1` [Example 21, methyl N-[(1S)-1-benzhydryl-2-[[2-[2-[(2R,5R)-5-(3H-imidazo[4,5-b]pyrazin-2-yl)morpholin-2-yl]ethyl]phenyl]amino]-2-oxo-ethyl]carbamate] yielded a concentration for half-maximal inhibition (IC50) of 1680 pM.

Molecule `COC(=O)N[C@H](C(=O)Nc1ccccc1CC[C@@H]1CN[C@H](c2nc3cc(Cl)c(C)cc3[nH]2)CO1)C(c1ccccc1)c1ccccc1` [Example 22, methyl N-[(1S)-1-benzhydryl-2-[[2-[2-[(2R,5R)-5-(5-chloro-6-methyl-1H-benzimidazol-2-yl)morpholin-2-yl]ethyl]phenyl]amino]-2-oxo-ethyl]carbamate] registered an IC50 of 1930 pM. This IC50 and that of the molecule before are within 1.5-fold of each other. In the case of `COC(=O)N[C@H](C(=O)Nc1ccccc1CC[C@@H]1CN[C@H](c2nc3c(C)ccnc3[nH]2)CO1)C(c1ccccc1)c1ccccc1` [Example 23, methyl N-[(1S)-1-benzhydryl-2-[[2-[2-[(2R,5R)-5-(7-methyl-3H-imidazo[4,5-b]pyridin-2-yl)morpholin-2-yl]ethyl]phenyl]amino]-2-oxo-ethyl]carbamate] it was 3130 pM. To `COC(=O)N[C@H](C(=O)Nc1ccccc1CC[C@@H]1CN[C@H](c2nc3c(C)cc(Cl)cc3[nH]2)CO1)C(c1ccccc1)c1ccccc1` [Example 24, methyl N-[(1S)-1-benzhydryl-2-[[2-[2-[(2R,5R)-5-(6-chloro-4-methyl-1H-benzimidazol-2-yl)morpholin-2-yl]ethyl]phenyl]amino]-2-oxo-ethyl]carbamate] belongs 16300 pM.

In turn, `COC(=O)N[C@H](C(=O)Nc1ccccc1CC[C@@H]1CN[C@H](c2nc3c(Cl)cc(C(F)(F)F)cc3[nH]2)CO1)C(c1ccccc1)c1ccccc1` [Example 26, methyl N-[(1S)-1-benzhydryl-2-[[2-[2-[(2R,5R)-5-[4-chloro-6-(trifluoromethyl)-1H-benzimidazol-2-yl]morpholin-2-yl]ethyl]phenyl]amino]-2-oxo-ethyl]carbamate] registered a half-maximal inhibitory concentration (IC50) of 65600 pM. Turning to `COC(=O)N[C@H](C(=O)Nc1ccccc1CC[C@@H]1CN[C@H](c2nc3cc(F)c(Cl)cc3[nH]2)CO1)C(c1ccccc1)c1ccccc1` [Example 27, N-(2-{2-[(2R,5R)-5-(6-chloro-5-fluoro-1H-benzimidazol-2-yl)morpholin-2-yl]ethyl}phenyl)-Na-(methoxycarbonyl)-b-phenyl-L-phenylalaninamide], the half-maximal inhibitory concentration (IC50) was found to be 658 pM. As to `COC(=O)N[C@H](C(=O)Nc1ccccc1CC[C@@H]1CN[C@H](c2nc3c(F)cccc3[nH]2)CO1)C(c1ccccc1)c1ccccc1` [Example 28, N-(2-{2-[(2R,5R)-5-(4-fluoro-1H-benzimidazol-2-yl)morpholin-2-yl]ethyl}phenyl)-Na-(methoxycarbonyl)-b-phenyl-L-phenylalaninamide], the IC50 was 122 pM. For `COC(=O)N[C@H](C(=O)Nc1cccc(F)c1CC[C@@H]1CN[C@H](c2nc3cc(C)c(C)cc3[nH]2)CO1)C(c1ccccc1)c1ccccc1` [Example 29, N-(2-{2-[(2R,5R)-5-(5,6-dimethyl-1H-benzimidazol-2-yl)morpholin-2-yl]ethyl}-3-fluorophenyl)-Na-(methoxycarbonyl)-b-phenyl-L-phenylalaninamide], 12.7 pM corresponded to half-maximal inhibition (IC50). In the case of `COC(=O)N[C@H](C(=O)Nc1cncc(F)c1CC[C@@H]1CN[C@H](c2nc3cc(C)c(C)cc3[nH]2)CO1)C(c1ccccc1)c1ccccc1` [Example 31, methyl N-[(1S)-1-benzhydryl-2-[[4-[2-[(2R,5R)-5-(5,6-dimethyl-1H-benzimidazol-2-yl)morpholin-2-yl]ethyl]-5-fluoro-3-pyridyl]amino]-2-oxo-ethyl]carbamate] it was 9.65 pM; in that of `COC(=O)N[C@H](C(=O)Nc1cnccc1CC[C@@H]1CN[C@H](c2nc3cc(C)c(C)cc3[nH]2)CO1)C(c1ccccc1)c1ccccc1` [Example 32, methyl N-[(1S)-1-benzhydryl-2-[[4-[2-[(2R,5R)-5-(5,6-dimethyl-1H-benzimidazol-2-yl)morpholin-2-yl]ethyl]-3-pyridyl]amino]-2-oxo-ethyl]carbamate], 40 pM; in that of `Cc1cc2nc([C@@H]3CO[C@H](CCc4c(F)cncc4NC(=O)C4(Cc5ccccc5Cl)CC4)CN3)[nH]c2cc1C` [Example 33], 4080 pM. In turn, `Cc1cc2nc([C@@H]3CO[C@H](CCc4cc[nH]c(=O)c4NC(=O)[C@@H](N)C(c4ccccc4)c4ccccc4)CN3)[nH]c2cc1C` [Example 34, N-(4-{2-[(2R,5R)-5-(5,6-dimethyl-1H-benzimidazol-2-yl)morpholin-2-yl]ethyl}-2-oxo-1,2-dihydropyridin-3-yl)-β-phenyl-L-phenylalaninamide] showed an IC50 of 168 pM. `COC(=O)N[C@H](C(=O)Nc1c(CC[C@@H]2CN[C@H](c3nc4cc(C)c(C)cc4[nH]3)CO2)cc[nH]c1=O)C(c1ccccc1)c1ccccc1` [Example 35, methyl N-[(1S)-1-benzhydryl-2-[[4-[2-[(2R,5R)-5-(5,6-dimethyl-1H-benzimidazol-2-yl)morpholin-2-yl]ethyl]-2-oxo-1H-pyridin-3-yl]amino]-2-oxo-ethyl]carbamate] returned a half-inhibitory concentration (IC50) of 159 pM. In turn, `COC(=O)N[C@H](C(=O)Nc1ccccc1CC[C@@H]1CN[C@H](c2nnc(C)[nH]2)CO1)C(c1ccccc1)c1ccccc1` [Example 36, Nα-(methoxycarbonyl)-N-[2-(2-{(2R,5R)-5-[(5-methyl-4H-1,2,4-triazol-3-yl)]morpholin-2-yl}ethyl)phenyl]-β-phenyl-L-phenylalaninamide] returned an IC50 of 16500 pM.
